Results: ChEMBL document CHEMBL1149623, “Identification of antibacterial and antiviral activities of novel fused 1,2,4-triazine esters” (2007)

How the values were obtained:
[1] = Cytotoxicity against monkey GMK cells at 200 ug/mL after 120 hrs by MTT assay; type: functional, Chlorocebus aethiops
[2] = Cytotoxicity against monkey GMK cells at 25 ug/mL after 48 hrs by MTT assay; type: functional, Chlorocebus aethiops
HEK293 [3] = assay: Cytotoxicity against human HEK293 cells at 10 ug/mL after 96 hrs by MTT assay; type: functional
HEK293 [4] = assay: Cytotoxicity against human HEK293 cells at 200 ug/mL after 120 hrs by MTT assay; type: functional
HEK293 [5] = assay: Cytotoxicity against human HEK293 cells at 25 ug/mL after 72 hrs by MTT assay; type: functional
HEK293 [6] = assay: Cytotoxicity against human HEK293 cells at 200 ug/mL after 72 hrs by MTT assay; type: functional
HEK293 [7] = assay: Cytotoxicity against human HEK293 cells at 2.5 ug/mL after 72 hrs by MTT assay; type: functional
HEK293 [8] = assay: Cytotoxicity against human HEK293 cells at 25 ug/mL after 120 hrs by MTT assay; type: functional
[9] = Cytotoxicity against monkey GMK cells at 200 ug/mL after 48 hrs by MTT assay; type: functional, Chlorocebus aethiops
[10] = Cytotoxicity against monkey GMK cells at 5 ug/mL after 72 hrs by MTT assay; type: functional, Chlorocebus aethiops
HEK293 [11] = assay: Cytotoxicity against human HEK293 cells at 50 ug/mL after 120 hrs by MTT assay; type: functional
HEK293 [12] = assay: Cytotoxicity against human HEK293 cells at 100 ug/mL after 48 hrs by MTT assay; type: functional
[13] = Cytotoxicity against monkey GMK cells at 5 ug/mL after 96 hrs by MTT assay; type: functional, Chlorocebus aethiops
[14] = Cytotoxicity against monkey GMK cells at 50 ug/mL after 24 hrs by MTT assay; type: functional, Chlorocebus aethiops
HEK293 [15] = assay: Cytotoxicity against human HEK293 cells at 200 ug/mL after 24 hrs by MTT assay; type: functional
[16] = Cytotoxicity against monkey GMK cells at 25 ug/mL after 96 hrs by MTT assay; type: functional, Chlorocebus aethiops
HEK293 [17] = assay: Cytotoxicity against human HEK293 cells at 100 ug/mL after 72 hrs by MTT assay; type: functional
[18] = Cytotoxicity against monkey GMK cells at 100 ug/mL after 72 hrs by MTT assay; type: functional, Chlorocebus aethiops
[19] = Cytotoxicity against monkey GMK cells at 50 ug/mL after 96 hrs by MTT assay; type: functional, Chlorocebus aethiops
HEK293 [20] = assay: Cytotoxicity against human HEK293 cells at 50 ug/mL after 96 hrs by MTT assay; type: functional
Echovirus E9 [21] = assay: Antiviral activity against Human echovirus 9 in GMK cells assessed as virus titre at 100 ug/mL after 1 hr; type: functional
HEK293 [22] = assay: Cytotoxicity against human HEK293 cells at 2.5 ug/mL after 120 hrs by MTT assay; type: functional
HEK293 [23] = assay: Cytotoxicity against human HEK293 cells at 25 ug/mL after 96 hrs by MTT assay; type: functional
HEK293 [24] = assay: Cytotoxicity against human HEK293 cells at 200 ug/mL after 96 hrs by MTT assay; type: functional
HEK293 [25] = assay: Cytotoxicity against human HEK293 cells at 5 ug/mL after 96 hrs by MTT assay; type: functional
[26] = Cytotoxicity against monkey GMK cells at 200 ug/mL after 72 hrs by MTT assay; type: functional, Chlorocebus aethiops
HEK293 [27] = assay: Cytotoxicity against human HEK293 cells at 2.5 ug/mL after 24 hrs by MTT assay; type: functional
HEK293 [28] = assay: Cytotoxicity against human HEK293 cells at 200 ug/mL after 48 hrs by MTT assay; type: functional
HEK293 [29] = assay: Cytotoxicity against human HEK293 cells at 50 ug/mL after 72 hrs by MTT assay; type: functional
HEK293 [30] = assay: Cytotoxicity against human HEK293 cells at 5 ug/mL after 24 hrs by MTT assay; type: functional
[31] = Cytotoxicity against monkey GMK cells at 10 ug/mL after 24 hrs by MTT assay; type: functional, Chlorocebus aethiops
HEK293 [32] = assay: Cytotoxicity against human HEK293 cells at 100 ug/mL after 96 hrs by MTT assay; type: functional
HEK293 [33] = assay: Cytotoxicity against human HEK293 cells at 5 ug/mL after 48 hrs by MTT assay; type: functional
Echovirus E9 [34] = assay: Antiviral activity against Human echovirus 9 in GMK cells assessed as virus titre at 200 ug/mL after 1 hr; type: functional
[35] = Cytotoxicity against monkey GMK cells at 10 ug/mL after 48 hrs by MTT assay; type: functional, Chlorocebus aethiops
[36] = Cytotoxicity against monkey GMK cells at 25 ug/mL after 72 hrs by MTT assay; type: functional, Chlorocebus aethiops
[37] = Cytotoxicity against monkey GMK cells at 100 ug/mL after 48 hrs by MTT assay; type: functional, Chlorocebus aethiops
HEK293 [38] = assay: Cytotoxicity against human HEK293 cells at 5 ug/mL after 120 hrs by MTT assay; type: functional
HEK293 [39] = assay: Cytotoxicity against human HEK293 cells at 50 ug/mL after 48 hrs by MTT assay; type: functional
HEK293 [40] = assay: Cytotoxicity against human HEK293 cells at 10 ug/mL after 24 hrs by MTT assay; type: functional
HEK293 [41] = assay: Cytotoxicity against human HEK293 cells at 100 ug/mL after 24 hrs by MTT assay; type: functional
HEK293 [42] = assay: Cytotoxicity against human HEK293 cells at 10 ug/mL after 48 hrs by MTT assay; type: functional
HEK293 [43] = assay: Cytotoxicity against human HEK293 cells at 5 ug/mL after 72 hrs by MTT assay; type: functional
[44] = Cytotoxicity against monkey GMK cells at 100 ug/mL after 120 hrs by MTT assay; type: functional, Chlorocebus aethiops
[45] = Cytotoxicity against monkey GMK cells at 50 ug/mL after 72 hrs by MTT assay; type: functional, Chlorocebus aethiops
HEK293 [46] = assay: Cytotoxicity against human HEK293 cells at 50 ug/mL after 24 hrs by MTT assay; type: functional
[47] = Cytotoxicity against monkey GMK cells at 2.5 ug/mL after 24 hrs by MTT assay; type: functional, Chlorocebus aethiops
[48] = Cytotoxicity against monkey GMK cells at 200 ug/mL after 96 hrs by MTT assay; type: functional, Chlorocebus aethiops
HEK293 [49] = assay: Cytotoxicity against human HEK293 cells at 2.5 ug/mL after 96 hrs by MTT assay; type: functional
[50] = Cytotoxicity against monkey GMK cells at 10 ug/mL after 120 hrs by MTT assay; type: functional, Chlorocebus aethiops
[51] = Cytotoxicity against monkey GMK cells at 50 ug/mL after 120 hrs by MTT assay; type: functional, Chlorocebus aethiops
[52] = Cytotoxicity against monkey GMK cells at 2.5 ug/mL after 96 hrs by MTT assay; type: functional, Chlorocebus aethiops
[53] = Cytotoxicity against monkey GMK cells at 2.5 ug/mL after 48 hrs by MTT assay; type: functional, Chlorocebus aethiops
HEK293 [54] = assay: Cytotoxicity against human HEK293 cells at 2.5 ug/mL after 48 hrs by MTT assay; type: functional
[55] = Cytotoxicity against monkey GMK cells at 10 ug/mL after 72 hrs by MTT assay; type: functional, Chlorocebus aethiops
[56] = Cytotoxicity against monkey GMK cells at 25 ug/mL after 24 hrs by MTT assay; type: functional, Chlorocebus aethiops
[57] = Cytotoxicity against monkey GMK cells at 25 ug/mL after 120 hrs by MTT assay; type: functional, Chlorocebus aethiops

In the case of `CCOC(=O)CC1NN=C2N(CCN2c2ccc(Cl)cc2)C1=O` (configuration not stated), the Activity [1] is reported as 95%, the Activity [2] is reported as 100% and the Activity (HEK293 [3]) is reported as 100%. For the same molecule, the Activity (HEK293 [4]) was 20%, the Activity (HEK293 [5]) was 100% and the Activity (HEK293 [6]) was 25%. It also gave an Activity (HEK293 [7]) of 100%, an Activity (HEK293 [8]) of 100% and an Activity [9] of 100%. For the same molecule, the Activity [10] was 100%, the Activity (HEK293 [11]) was 100% and the Activity (HEK293 [12]) was 90%. The Activity [13] was 100%, the Activity [14] was 100% and the Activity (HEK293 [15]) was 50%. It also gave an Activity [16] of 100%, an Activity (HEK293 [17]) of 70% and an Activity [18] of 100%. The Activity [19] was 100%, the Activity (HEK293 [20]) was 100% and the TCID50 (Echovirus E9 [21]) was 3.67 mL⁻¹. The Activity (HEK293 [22]) was 100%, the Activity (HEK293 [23]) was 100% and the Activity (HEK293 [24]) was 25%. For the same molecule, the Activity (HEK293 [25]) was 100%, the Activity [26] was 100% and the Activity (HEK293 [27]) was 100%. The Activity (HEK293 [28]) was 30%, the Activity (HEK293 [29]) was 100% and the Activity (HEK293 [30]) was 100%. It also gave an Activity [31] of 100%, an Activity (HEK293 [32]) of 70% and an Activity (HEK293 [33]) of 100%. The TCID50 (Echovirus E9 [34]) was 3.5 mL⁻¹, the Activity [35] was 100% and the Activity [36] was 100%. For the same molecule, the Activity [37] was 100%, the Activity (HEK293 [38]) was 100% and the Activity (HEK293 [39]) was 100%. The Activity (HEK293 [40]) was 100%, the Activity (HEK293 [41]) was 95% and the Activity (HEK293 [42]) was 100%. The Activity (HEK293 [43]) was 100%, the Activity [44] was 100% and the Activity [45] was 100%. For the same molecule, the Activity (HEK293 [46]) was 100%, the Activity [47] was 100% and the Activity [48] was 95%. For the same molecule, the Activity (HEK293 [49]) was 100%, the Activity [50] was 100% and the Activity [51] was 100%. It also gave an Activity [52] of 100%, an Activity [53] of 100% and an Activity (HEK293 [54]) of 100%. It also gave an Activity [55] of 100%, an Activity [56] of 100% and an Activity [57] of 100%.
